Reference: paper PMC6968685 (Journal of Enzyme Inhibition and Medicinal Chemistry, 2020)
Where a name gives a salt, the structure may show the parent alone.

Tests used:
[1] = test system: T. brucei brucei AnTat 1.9; assay: In vitro antitrypanosomal activity, Alamar Blue assay; assay type: cell-based; settings: for Selectivity index HepG2/Tryp.: SI = CC50 HepG2 / IC50 Trypanosoma brucei brucei; for IC50: Trypanosoma brucei, slender bloodstream trypomastigotes, AnTat 1.9 strain, read-out: Trypanosoma brucei brucei IC50 values, Trypanos Antat 1.9
Protocol: The effects of the tested compounds on the growth of T. brucei brucei were assessed using an Alamar Blue® assay described by Räz et al.[49] T. brucei brucei AnTat 1.9 (IMTA, Antwerpen, Belgium) was cultured in MEM with Earle’s salts, supplemented according to the protocol of Baltz et al.[50] with the following modifications: 0.5 mM mercaptoethanol (Sigma Aldrich), 1.5 mM L-cysteine (Sigma Aldrich), 0.05 mM bathocuproine sulphate (Sigma Aldrich), and 20% heat-inactivated horse serum (Gibco, France) at 37 °C and 5% CO2. Samples were incubated at an average density of 2000 parasites/well in sterile 96-wells plates (Fisher, France) with various concentrations of compounds dissolved in 0.9% NaCl. All doses were tested in duplicate. Appropriate controls treated with solvents 0.9% NaCl or DMSO or with suramin, pentamidine, eflornithine, and fexinidazole (reference drugs purchased from Sigma Aldrich and Fluorochem, UK) were added to each set of experiments. After 69 h incubation period at 37 °C, 10 µl of the viability marker Alamar Blue (Fisher) was added to each well, and the plates were incubated for 5 h. The plates were read in a PerkinElmer ENSPIRE (Germany) microplate reader using an excitation wavelength of 530 nm and an emission wavelength of 590 nm. […] IC50 values were calculated using a nonlinear regression analysis of dose-response curves performed using GraphPad Prism software (La Jolla, CA). IC50 values were calculated from three independent experiments.

[2] = Cytotoxicity evaluation, MTT; assay type: cell-based, human; settings: human
Protocol: These cells are a commonly used human hepatocarcinoma-derived cell line that has characteristics similar to those of primary hepatocytes. These cells express many hepatocyte-specific metabolic enzymes, thus enabling the cytotoxicity of tested product metabolites to be evaluated. […] Duplicate assays were performed for each sample. Each well was microscopically examined for precipitate formation before the medium was aspirated from the wells. After aspiration, 100 µl of MTT solution (0.5 mg/ml in medium without FCS) were then added to each well. […] The MTT solution was removed, and DMSO (100 µl) was added to dissolve the resulting blue formazan crystals. Plates were shaken vigorously (300 rpm) for 5 min. The absorbance was measured at 570 nm with 630 nm as reference wavelength in a BIO-TEK ELx808 Absorbance Microplate Reader. DMSO was used as blank and doxorubicin (Sigma Aldrich) as positive control. Cell viability was calculated as percentage of control (cells incubated without compound). The CC50 was determined from the dose-response curve using the TableCurve 2D version 5.0 software (Systat Software, San Jose, CA)

[3] = test system: P. falciparum CQ-sensitive strain 3D7; assay: In vitro antiplasmodial activity, SYBR Green I fluorescence-based method, strain 3D7; assay type: cell-based; settings: for IC50: Plasmodium falciparum, chloroquine-sensitive strain 3D7, 48 h incubation, read-out: P. falciparum strains IC50 values, 3D7; for Selectivity index HepG2/3D7: SI = CC50 HepG2 / IC50 P. falciparum 3D7
Protocol: (§1) The in vitro antiplasmodial activities were tested over concentrations ranging from […] against culture-adapted P. falciparum reference strains 3D7 and W2. […] The parasites were cultivated in RPMI medium (Sigma-Aldrich, Lyon, France) supplemented with 0.5% Albumax I (Life Technologies Corporation, Paisley, UK), hypoxanthine (Sigma-Aldrich), and gentamicin (Sigma-Aldrich) with human erythrocytes and were incubated at 37 °C in a candle jar, as described previously[43] .The P. falciparum drug susceptibility test was carried out in 96-well flat-bottom sterile plates in a final volume of 250 µl. After 48 h incubation period with the drugs, quantities of DNA in treated and control cultures of parasites in human erythrocytes were quantified using the SYBR Green I (Sigma-Aldrich) fluorescence-based method[44]^,[45]. Briefly, after incubation, plates were frozen at −20 °C until use. Plates were then thawed for 2 h at room temperature, and 100 µl of each homogenised culture was transferred to a well of a 96-well flat-bottom sterile black plate (Nunc, Inc., Rochester, NY) that contained 100 µl of the SYBR Green I lysis buffer (2xSYBR Green, 20 mM Tris base pH 7.5, 5 mM EDTA, 0.008% w/v saponin, 0.08% w/v Triton X-100). […] Plates were incubated for 1 h at room temperature and then read on a fluorescence plate reader (Tecan, Grödig, Austria) using excitation and emission wavelengths of 485 and 535 nm, respectively. IC50 values were calculated by non-linear regression analysis of data from dose-response curves, using TableCurve 2D version 5.0 software (Systat Software, San Jose, CA). IC50 values are reported as means calculated from three independent experiments.

[4] = test system: L. donovani (MHOM/IN/00/DEVI) promastigotes; assay: In vitro antileishmanial activity, MTT assay on promastigotes; assay type: cell-based; settings: Leishmania donovani, 72 h incubation, ≥10 = no activity noted at the highest concentration tested
Protocol: L. donovani (MHOM/IN/00/DEVI) used in this study was provided by the CNR Leishmania (Montpellier, France). The effects of the tested compounds on the growth of L. donovani (MHOM/IN/00/DEVI) promastigotes were assessed by MTT assay. Briefly, promastigotes in log-phase in Schneider’s medium supplemented with 20% foetal calf serum (FCS), 2 mM L-glutamine and antibiotics (100 U/ml penicillin and 100 µg/ml streptomycin), were incubated at an average density of 10^6 parasites/ml in sterile 96-well plates with various concentrations of compounds dissolved in DMSO (final concentration less than 0.5% v/v), in duplicate. Appropriate controls treated with DMSO and amphotericin B (reference drug purchased from Sigma-Aldrich) were added to each set of experiments. After 72 h incubation period at 27 °C, parasite metabolic activity was determined. Each well was microscopically examined for precipitate formation. To each well was added 20 µl of 5 mg/ml MTT [3–(4,5-dimethylthiazol-2-yl)-2,5-diphenyltetrazolium bromide)] solution followed by 4 h incubation time. The enzyme reaction was stopped by addition of 100 µl of 50% isopropanol/10% sodium dodecyl sulfate. Plates were vigorously shaken (300 rpm) for 10 min, and the absorbance was measured at 570 nm in a BIO-TEK ELx808 Absorbance Microplate Reader. […] IC50 of the parasite’s growth (half maximal inhibitory concentration or IC50 values) were then calculated from the obtained experimental results using a previously described regression programme.

[5] = test system: P. falciparum CQ-resistant strain W2; assay: In vitro antiplasmodial activity, SYBR Green I fluorescence-based method, strain W2; assay type: cell-based; settings: for IC50: Plasmodium falciparum, chloroquine-resistant strain W2, 48 h incubation, read-out: P. falciparum strains IC50 values, W2; for Selectivity index HepG2/W2: SI = CC50 HepG2 / IC50 P. falciparum W2
Protocol: as §1

Row | SMILES | IC50 [1] [nM] | IC50 [3] [µM] | IC50 [4] [µM] | IC50 [5] [µM] | melting point [°C] | Selectivity index HepG2/Tryp. [1] | CC50 at 72 h [2] [µM] | Selectivity index HepG2/3D7 [3] | Selectivity index HepG2/W2 [5]
1 | COc1ccc2c(-c3ccc(CNCCCCN4CCN(C)CC4)cc3)cc(-c3ccc(CNCCCCN4CCN(C)CC4)cc3)nc2c1 (as salt: (cooh)2) [Compound 1o, 7-Methoxy-2,4-bis{4-[(4–(4-methylpiperazin-1-yl)butyl)aminomethyl]phenyl}quinoline] | – | – | – | – | 237 to 239 | – | – | – | –
2 | c1cc(CNCCN2CCOCC2)cc(-c2cc(-c3cccc(CNCCN4CCOCC4)c3)c3ccccc3n2)c1 (as salt: (cooh)2) [Compound 1t, 2,4-Bis{3-[(2-morpholinoethyl)aminomethyl]phenyl}quinoline] | – | – | – | – | 225 to 227 | – | – | – | –
3 | COc1ccc2nc(-c3ccc(CNCCCN(C)C)cc3)cc(-c3ccc(CNCCCN(C)C)cc3)c2c1 [Compound 1j, 6-Methoxy-2,4-bis{4-[(3-dimethylaminopropyl)aminomethyl]phenyl}quinoline] | 620 ± 70 | 2.65 ± 0.18 | ≥ 10 | 4.21 ± 0.31 | – | 4.03 | 2.5 ± 0.2 | 0.94 | 0.59
4 | COc1ccc2c(-c3ccc(CNCCCCN(C)C)cc3)cc(-c3ccc(CNCCCCN(C)C)cc3)nc2c1 [Compound 1m, 7-Methoxy-2,4-bis{4-[(4-dimethylaminobutyl)aminomethyl]phenyl}quinoline] | 1080 ± 68 | 8.98 ± 0.36 | ≥ 10 | > 40 | – | 5.00 | 5.4 ± 0.3 | 0.60 | –
5 | COc1ccc2nc(-c3ccc(CNCCCN4CCN(C)CC4)cc3)cc(-c3ccc(CNCCCN4CCN(C)CC4)cc3)c2c1 [Compound 1l, 6-Methoxy-2,4-bis{4-[(3–(4-methylpiperazin-1-yl)propyl)aminomethyl]phenyl}quinoline] | 1540 ± 164 | 1.8 ± 0.2 | ≥ 10 | 4.51 ± 0.71 | – | 0.66 | 1.02 ± 0.1 | 0.57 | 0.23
6 | COc1ccc2nc(-c3ccc(CNCCCCN(C)C)cc3)cc(-c3ccc(CNCCCCN(C)C)cc3)c2c1 [Compound 1i, 6-Methoxy-2,4-bis{4-[(4-dimethylaminobutyl)aminomethyl]phenyl}quinoline] | 670 ± 91 | 3.09 ± 0.38 | ≥ 10 | 7.92 ± 0.64 | – | 5.34 | 3.58 ± 0.3 | 1.16 | 0.45
7 | COc1ccc2c(-c3ccc(CNCCCN(C)C)cc3)cc(-c3ccc(CNCCCN(C)C)cc3)nc2c1 [Compound 1n, 7-Methoxy-2,4-bis{4-[(3-dimethylaminopropyl)aminomethyl]phenyl}quinoline] | 1200 ± 296 | 3.18 ± 0.36 | ≥ 10 | 1.69 ± 0.24 | – | 0.40 | 0.48 ± 0.1 | 0.15 | 0.28

Second part, led by results:

Row | IC50 [1] [nM] | IC50 [3] [µM] | IC50 [4] [µM] | IC50 [5] [µM] | SMILES | melting point [°C] | Selectivity index HepG2/Tryp. [1] | CC50 at 72 h [2] [µM] | Selectivity index HepG2/3D7 [3] | Selectivity index HepG2/W2 [5]
8 | 1020 ± 194 | 6.56 ± 1.44 | ≥ 10 | 5.08 ± 0.48 | COc1ccc2c(-c3ccc(CNCCCCN4CCN(C)CC4)cc3)nc(-c3ccc(CNCCCCN4CCN(C)CC4)cc3)nc2c1 [Compound 3p, 7-Methoxy-2,4-bis{4-[(4–(4-methylpiperazin-1-yl)butyl)aminomethyl]phenyl}quinazoline] | – | 17.01 | 17.4 ± 1.2 | 2.64 | 3.41
9 | 640 ± 163 | 1.74 ± 0.36 | ≥ 10 | 6.23 ± 0.8 | CN(C)CCCCNCc1ccc(-c2cc3ccccc3c(-c3ccc(CNCCCCN(C)C)cc3)n2)cc1 [Compound 2a, 1,3-Bis{4-[(4-dimethylaminobutyl)aminomethyl]phenyl}isoquinoline] | – | 12.98 | 8.31 ± 1 | 4.78 | 1.33
10 | 1340 ± 88 | 9.66 ± 1.2 | ≥ 10 | 9.6 ± 0.99 | COc1ccc2c(-c3ccc(CNCCCN4CCN(C)CC4)cc3)nc(-c3ccc(CNCCCN4CCN(C)CC4)cc3)cc2c1 [Compound 2l] | – | 1.50 | 2.01 ± 0.2 | 0.21 | 0.21
11 | 1280 ± 122 | 5.77 ± 0.67 | ≥ 10 | 5.46 ± 0.44 | CN1CCN(CCCNCc2ccc(-c3cc4ccccc4c(-c4ccc(CNCCCN5CCN(C)CC5)cc4)n3)cc2)CC1 [Compound 2d, 1,3-Bis{4-[(3–(4-methylpiperazin-1-yl)propyl)aminomethyl]phenyl}isoquinoline] | – | 11.60 | 14.8 ± 1.1 | 2.57 | 2.72
12 | 1070 ± 164 | 4.34 ± 0.33 | ≥ 10 | 4.75 ± 0.31 | COc1ccc2c(-c3ccc(CNCCN4CCN(C)CC4)cc3)nc(-c3ccc(CNCCN4CCN(C)CC4)cc3)nc2c1 [Compound 3r, 7-Methoxy-2,4-bis{4-[(2–(4-methylpiperazin-1-yl)ethyl)aminomethyl]phenyl}quinazoline] | – | 3.64 | 3.9 ± 0.9 | 0.90 | 0.82
13 | 810 ± 255 | 1.81 ± 0.19 | ≥ 10 | 1.28 ± 0.34 | COc1ccc2cc(-c3ccc(CNCCCN4CCN(C)CC4)cc3)nc(-c3ccc(CNCCCN4CCN(C)CC4)cc3)c2c1 [Compound 2h, 7-Methoxy-1,3-bis{4-[(3–(4-methylpiperazin-1-yl)propyl)aminomethyl]phenyl}isoquinoline] | – | 8.86 | 7.18 ± 0.6 | 3.97 | 5.61
